Earlier results, collected in patent US12251361B2, “Solutions for oral dosage” (LIQMEDS WORLDWIDE LIMITED, priority 2019, dated 2025).

## CN(C)CCC=C1c2ccccc2CCc2ccccc21.Cl [Amitriptyline HCl, 3-(10,11-dihydro-5H-dibenzo[a,d]cycloheptene-5-ylidene)-N,N-dimethyl-1-propanamine hydrochloride]
  Solubility in water: freely soluble
